Columns and labels:
[1] = tested on: A375 (melanoma); experiment: In vitro cytotoxic activity (MTT) assay, A375; format: cell-based; conditions: Homo sapiens, A-375; A375 (melanoma) cells, 96 hours exposure; read-out: IC50, 50% inhibition of cell proliferation
Method: (§1) Compounds 1-12 were screened for their in vitro cytotoxic activity utilizing a 3-(4,5-dimethyl-thiazol-2-yl)-2,5-diphenyltetrazolium bromide (MTT) assay against selected cancer human cell lines consisting of PC3 (prostate), HCT116 (colon), A375 (melanoma), H1299 (lung), MIAPaCa-2 (pancreas), HL60 (leukemia), MCF7 (breast), MDA-MB-231 (breast) (T. Mosmann, J. Immunol. Meth., 1983, 65, 55-63). The cells were cultured at 37° C. in RMPI1640 medium supplemented with 10% fetal bovine serum, 50 IU/mL penicillin, and 50 μg/mL streptomycin in a 5% CO2 incubator. All cells were sub-cultured 3 times/week by trypsinisation. Viable cells were seeded and allowed to adhere for 12 h before a test drug was added in 96-well plates at an initial density of 1.0×10^5 cells/mL. Tumour cell lines were separately exposed to various concentrations of the tested compounds followed by incubation at a temperature of 37° C. during 96 h inside a medium of fresh RMPI 1640. Cells were subsequently incubated at 37° C. using MTT at 0.5 mg/mL during 4 h. After removal of supernatant, formazan crystals were dissolved in isopropanol and the optical density was measured at 570 nm. CX-4945 was used as a positive control.

[2] = tested on: H1299 (lung); experiment: In vitro cytotoxic activity (MTT) assay, H1299; format: cell-based; conditions: Homo sapiens, NCI-H1299; H1299 (lung) cells, 96 hours exposure; read-out: IC50, 50% inhibition of cell proliferation
Method: as §1

[3] = tested on: MDA-MB-231 (breast); experiment: In vitro cytotoxic activity (MTT) assay, MDA-MB-231; format: cell-based; conditions: Homo sapiens; MDA-MB-231 (breast) cells, 96 hours exposure; read-out: IC50, 50% inhibition of cell proliferation
Method: as §1

[4] = tested on: PC3 (prostate); experiment: In vitro cytotoxic activity (MTT) assay, PC3; format: cell-based; conditions: Homo sapiens, Prostate cell; PC3 (prostate) cells, 96 hours exposure; read-out: IC50, 50% inhibition of cell proliferation
Method: as §1

[5] = target: T1, recombinant human CK2 (RRββ-holoenzyme) (Homo sapiens, UniProt P68400); experiment: CK2 kinase assay (33P-ATP, filter plate); format: biochemical; conditions: final ATP 15 μM, 10 min at 30° C.; read-out: protein kinase CK2 IC50
T1 construct: purchased Millipore
T1 sequence (P68400 whole entry): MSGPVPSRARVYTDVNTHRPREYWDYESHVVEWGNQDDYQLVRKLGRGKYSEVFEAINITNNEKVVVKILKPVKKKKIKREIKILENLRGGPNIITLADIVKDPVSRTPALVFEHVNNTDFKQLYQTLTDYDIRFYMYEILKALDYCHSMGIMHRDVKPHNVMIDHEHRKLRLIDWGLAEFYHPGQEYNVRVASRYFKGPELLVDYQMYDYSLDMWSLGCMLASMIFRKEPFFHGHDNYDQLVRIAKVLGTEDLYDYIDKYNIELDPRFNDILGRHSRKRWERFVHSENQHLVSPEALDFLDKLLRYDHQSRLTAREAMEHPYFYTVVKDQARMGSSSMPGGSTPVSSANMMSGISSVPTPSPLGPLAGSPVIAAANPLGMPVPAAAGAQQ
T1 sequence (P67870 whole entry partner): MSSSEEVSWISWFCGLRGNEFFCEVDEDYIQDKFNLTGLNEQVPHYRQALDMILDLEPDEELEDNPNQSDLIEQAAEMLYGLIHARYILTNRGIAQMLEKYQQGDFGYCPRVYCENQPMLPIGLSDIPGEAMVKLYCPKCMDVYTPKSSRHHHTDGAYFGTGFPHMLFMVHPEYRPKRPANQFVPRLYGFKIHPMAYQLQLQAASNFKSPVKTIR
Method: CK2 Kinase Assay was conducted using the protocol as described in Pierre F. et al; J. Med Chem. 2011, 54, 635-654. The tested compounds in aqueous solution were added at a volume of 10 μL to a reaction mixture comprising 10 μL of assay dilution buffer (ADB; 20 mM MOPS, pH 7.2, 25 mM β-glycerol phosphate, 5 mM EGTA, 1 mM sodium orthovanadate, and 1 mM dithiothreitol), 10 μL of substrate peptide (RRRDDDSDDD, dissolved in ADB at a concentration of 1 mM), 10 μL of recombinant human CK2 (RRββ-holoenzyme, 25 ng dissolved in ADB; Millipore). Reactions were initiated by the addition of 10 μL of ATP solution (90% 75 mMMgCl2, 75 μM ATP (final ATP concentration: 15 μM) dissolved in ADB; 10% [γ-33P] ATP (stock 1 mCi/100 μL; 3000 Ci/mmol (Perkin-Elmer) and maintained for 10 min at 30° C. The reactions were quenched with 100 μL of 0.75% phosphoric acid and then transferred to and filtered through a phosphor cellulose filter plate (Millipore). After washing each well five times with 0.75% phosphoric acid, the plate was dried under vacuum for 5 min and, following the addition of 15 μL of scintillation fluid to each well, the residual radioactivity was measured using a Wallac […]. The IC50 values were derived from eight concentrations of test inhibitors.

[6] = tested on: HL60 (leukemia); experiment: In vitro cytotoxic activity (MTT) assay, HL60; format: cell-based; conditions: Homo sapiens, HL-60; HL60 (leukemia) cells, 96 hours exposure; read-out: IC50, 50% inhibition of cell proliferation
Method: as §1

[7] = tested on: MCF7 (breast); experiment: In vitro cytotoxic activity (MTT) assay, MCF7; format: cell-based; conditions: Homo sapiens; MCF7 (breast) cells, 96 hours exposure; read-out: IC50, 50% inhibition of cell proliferation
Method: as §1

[8] = tested on: MIAPaCa-2 (pancreas); experiment: In vitro cytotoxic activity (MTT) assay, MIAPaCa-2; format: cell-based; conditions: Homo sapiens, MIA PaCa-2; MIAPaCa-2 (pancreas) cells, 96 hours exposure; read-out: IC50, 50% inhibition of cell proliferation
Method: as §1

[9] = tested on: HCT116 (colon); experiment: In vitro cytotoxic activity (MTT) assay, HCT116; format: cell-based; conditions: Homo sapiens, HCT-116; HCT116 (colon) cells, 96 hours exposure; read-out: IC50, 50% inhibition of cell proliferation
Method: as §1

Question: Clc1ccc(Nc2c3ccncc3nc3c2[nH]c2cnccc23)cc1 [Compound 1, N-(4-chlorophenyl)-11H-pyrido[4′,3′:4,5]pyrrolo[3,2-b][1,7]naphthyridin-10-amine] was tested. Which IC50 [1] did it give?
Answer: 3.4 µM

Question: And the IC50 [2]?
Answer: 2.4 µM

Question: What about the IC50 [3] of the same compound?
Answer: 5.2 µM

Question: And the IC50 [4]?
Answer: 1.3 µM

Question: What about the IC50 [5] of the same compound?
Answer: 0.005 µM

Question: What about the IC50 [6] of the same compound?
Answer: 3.1 µM

Question: What about the IC50 [7] of the same compound?
Answer: 8.5 µM

Question: And the IC50 [8]?
Answer: 1.6 µM

Question: What about the IC50 [9] of the same compound?
Answer: 1.5 µM

Source: patent publication US11932641B1, “Pyrido[4′,3′:4,5]pyrrolo[3,2-b][1,7]naphthyridine compounds as CK2 inhibitors” (KING FAISAL UNIVERSITY, priority 2023, dated 2024)
